Columns and labels:
human STING WT (R232) = target: T1, human STING WT (R232) (Homo sapiens, UniProt Q86WV6, H232R); assay: Human STING HTRF binding assay (competitive, Cisbio 64BDSTGPEG)
T1 construct: purchased Cisbio 64BDSTGPEG
Description: Binders to human STING WT (R232) were identified using a competitive HTRF assay format (Cisbio 64BDSTGPEG), which uses d2-labeled STING ligand, a 6His (SEQ ID NO: 2) tagged human STING protein, and an anti 6His (SEQ ID NO: 2) Cryptate-labeled antibody. Compounds compete with the STING ligand-d2 and thereby prevents FRET from occurring, which can be measured by an EnVision™ reader (PerkinElmer).
Assay method: Compounds were delivered as 10 mM DMSO solution, serially diluted by an Agilent Bravo Workstation and transferred to the 384 well assay plate (Perkin Elmer #6005359) using a Cybiwell dispenser. Typically, 8 concentrations were used with the highest concentration at 10 μM or 1 μM in the final assay volume followed by ~1:5 dilution steps. DMSO concentration was set to 1% in the final assay volume. The 384 well assay plate contained 20 test compounds and DMSO in column 23 and 24. A cGAMP standard dilution row was prepared according to the manufacturer and transferred to each assay plate. After transfer of compound solution or dilution buffer for negative (high) and positive (low) controls, 5 μl of the human STING protein (cyclic binding domain (residues 138-379) of the WT R232 human version, fused to a 6 His tag (SEQ ID NO: 2) at the Nter part; 1:50 dilution in detection buffer) were dispensed to all wells except of the positive control, which received detection buffer only. Plates were the centrifuged for 20 sec at 1000 rpm. After that, 10 μl of Anti-6His-Cryptate antibody/Sting ligand-d2 mix was added to all wells using a Multidrop combi dispenser, followed by another sec/1000 rpm centrifugation step. After an incubation of the plates for 180 min at room temperature, […] at […] (HTRF ratio) was measured using an Envison Reader (PerkinElmer).
Data evaluation and calculation: For data evaluation and calculation, HTRF ratios were calibrated using the cGAMP standard curve. After that, the measurement of the low control was set as 0% control and the measurement of the high control was set as 100% control. The IC50 values were calculated using the standard 4 parameter logistic regression formula. Calculation: [y=(a−d)/(1+(x/c)^b)+d], a=low value, d=high value; x=conc M; c=IC50 M; b=slope;

[1] = target: T2, cGAMP binding domain of wild-type (GRR) human STING, residues 155-341 (Homo sapiens, UniProt Q86WV6, H232R); assay: Increase of stability of STING protein against thermal denaturation, Differential Scanning Fluorimetry (DSF)
T2 construct: His-TEV-hSTING (WT); TEV protease cleavage site (N); made in house; host or cells: E. coli BL21 DE3
T2 sequence (Q86WV6 with tags, fused parts or gaps H232R): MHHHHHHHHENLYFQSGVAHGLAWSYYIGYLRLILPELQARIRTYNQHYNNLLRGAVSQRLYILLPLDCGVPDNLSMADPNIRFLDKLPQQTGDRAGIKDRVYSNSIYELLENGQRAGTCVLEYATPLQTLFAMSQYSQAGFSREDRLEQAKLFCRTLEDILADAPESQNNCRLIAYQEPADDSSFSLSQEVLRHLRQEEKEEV
Description: Dye fluorescence is quenched in aqueous environment and increases upon association of the dye with the hydrophobic parts of the unfolding protein. […] The inflection point of the curve represents the “melting” temperature of the protein (Tm) which is calculated numerically using the Boltzmann equation.
Method: The thermal stability of the STING protein was measured using a specific expression construct of the cGAMP binding domain of wild-type (GRR) human STING comprising residues 155-341 and a N-terminal 8×His-tag (SEQ ID NO: 3) in assay buffer containing 20 mM Tris, 150 mM NaCl at pH7.5.
The assay uses Hard-Shell® PCR Plates 384-Well CLR/WHT (Catalog #HSP3805, BIO-RAD), Microseal® ‘B’ Adhesive Seals for PCR Plates (Catalog #MSB-1001, BIO-RAD) and was run on a CFX384 Real-Time System (Bio-Rad).
A DMSO stock solution of SYPRO orange (SIGMA S5692-500UL) was prepared.
Compound stock solutions (10 mM in DMSO) were diluted 1:2 in DMSO to an intermediate compound concentration of 5 mM and then further diluted 1:40 in assay buffer resulting in a compound concentration of 125 μM and 2.5% DMSO.
Fluorescent dye stock solution (5000×SYPRO Orange) was then mixed with target protein and buffer to a concentration of 15 uM Protein and 25×SYPRO Orange. 2 ul of this protein-dye-mixture was added to 8 ul compound solution. Final volume was 10 uL. 3-6 well positions were used as negative control (protein with 2% DMSO). The plates were prepared for duplicate measurement and centrifuged for 2 min at 1000 g. In the measurement, 160 cycles of 0.5° C. were used (temperature ramp 15 s/cycle, 15° C. to 95° C.).
Final Assay concentrations for compound characterization were as follows: 100 uM compound, 3 uM target protein, 5×SYPRO Orange, 2% DMSO in 10 ul. All dispensing steps were performed using a HamiltonStar pipetting robot (Hamilton).
Dissociation curves were processed in Bio-Rad CFX Manager. Peak type was set to “negative”. Compound codes for screen were assigned in the plate layout.
Two replicates of TM measurements were averaged, and the standard deviation was calculated. In cases of SD>1.5° C. the measurement was repeated.
The melting point (Tm) obtained for STING protein alone was subtracted from T obtained for protein incubated with ligand to generate ΔTm values.
Protein production and purification: The protein used for the biophysical experiments was a recombinant human STING protein comprising its cytosolic ectodomain. A codon optimized DNA sequence (for expression in Escherichia coli) encoding amino acid residues 155 to 341 (Swiss Prot Q86WV6) of human STING (WT) was synthesized by GeneArt (Regensburg, Germany) and inserted into a pET17b E. coli expression vector. The protein construct encodes an N-terminal 8×His-tag (SEQ ID NO: 3) followed by tobacco etch virus protease (TEV) cleavage site and the above STING gene sequence. The resulting protein sequence for the used STING variant is listed below:
For expression of recombinant human STING above construct was transformed into E. coli BL21 DE3 strain and grown in shake flasks in LB-medium at 37° C. Expression was induced by addition of isopropyl β-D-1-thiogalactopyranoside to a final concentration of 1 mM and cultures shaken overnight. Cell pellets were centrifuged and stored at −70° C. until further use. Protein was purified by cell thawing in lysis buffer (20 mM TRIS-HCl, pH 8, 300 mM NaCl, 2 mM mercaptoethanol, 20 mM imidazole, Complete Protease Inhibitor (Roche) and DNase (Roche)), followed by metal affinity purification using Ni-NTA resins and elution buffer consisting of 20 mM TRIS-HCl, pH 8, 300 mM NaCl, 2 mM mercaptoethanol, 300 mM imidazole and size exclusion chromatography in running buffer (20 mM TRIS-HCl, pH 8, 100 mM NaCl, 2 mM DTT). The peak fraction was collected and concentrated to 2.5 mg/mL.

T1 sequence (Q86WV6 138-379 H232R): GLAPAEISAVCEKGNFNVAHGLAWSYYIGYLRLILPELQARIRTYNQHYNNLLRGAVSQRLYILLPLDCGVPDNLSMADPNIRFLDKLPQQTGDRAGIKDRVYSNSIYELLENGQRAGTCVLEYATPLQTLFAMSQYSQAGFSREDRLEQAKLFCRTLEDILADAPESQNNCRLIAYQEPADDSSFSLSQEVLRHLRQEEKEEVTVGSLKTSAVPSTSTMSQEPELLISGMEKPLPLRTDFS

| SMILES | IC50 (human STING WT (R232)) | DSF [1] |
| --- | --- | --- |
| Cc1nc2nn(CCN3CCOCC3)cc2cc1-n1nc(-c2cccc3nn(C[C@H](O)c4ccccc4)cc23)c(C(C)C)c1C [Example 1, (1R)-2-[4-(5-methyl-1-{6-methyl-2-[2-(morpholin-4-yl)ethyl]-2H-pyrazolo[3,4-b]pyridin-5-yl}-4-(propan-2-yl)-1H-pyrazol-3-yl)-2H-indazol-2-yl]-1-phenylethan-1-ol] | 12.1 nM | 26 K |
| Cc1nc2nn(CCCC#N)cc2cc1-n1nc(-c2cccc3nn(C[C@H](O)c4ccccc4)cc23)c(C(C)C)c1C [Example 2, 4-[5-(3-{2-[(2R)-2-hydroxy-2-phenylethyl]-2H-indazol-4-yl}-5-methyl-4-(propan-2-yl)-1H-pyrazol-1-yl)-6-methyl-2H-pyrazolo[3,4-b]pyridin-2-yl]butanenitrile] | 15.8 nM | 28 K |
| Cc1nc2nn(Cc3cccnc3)cc2cc1-n1nc(-c2cccc3nn(C[C@H](O)c4ccccc4)cc23)c(C(C)C)c1C [Example 6, (1R)-2-[4-(5-methyl-1-{6-methyl-2-[(pyridin-3-yl)methyl]-2H-pyrazolo[3,4-b]pyridin-5-yl}-4-(propan-2-yl)-1H-pyrazol-3-yl)-2H-indazol-2-yl]-1-phenylethan-1-ol] | 14.2 nM | 29 K |
| Cc1nc2nn(CCCN3CCN(C)CC3)cc2cc1-n1nc(-c2cccc3nn(C[C@H](O)c4ccccc4)cc23)c(C(C)C)c1C [Example 7, (1R)-2-[4-(5-methyl-1-{6-methyl-2-[3-(4-methylpiperazin-1-yl)propyl]-2H-pyrazolo[3,4-b]pyridin-5-yl}-4-(propan-2-yl)-1H-pyrazol-3-yl)-2H-indazol-2-yl]-1-phenylethan-1-ol] | 24.6 nM | 25 K |
| Cc1nc2nn(C)cc2cc1-n1nc(-c2cccc3nn(C[C@H](OCCO)c4ccccc4)cc23)c(C(C)C)c1C [Example 8, 2-[(1R)-2-[4-(1-{2,6-dimethyl-2H-pyrazolo[3,4-b]pyridin-5-yl}-5-methyl-4-(propan-2-yl)-1H-pyrazol-3-yl)-2H-indazol-2-yl]-1-phenylethoxy]ethan-1-ol] | 14.6 nM | 24 K |
| COc1ccc(Cn2cc3cc(-c4nc(-c5cccc6nn(C[C@H](O)c7ccccc7)cc56)c(C5CC5)n4C)c(C4CC4)nc3n2)cc1 [Example 9, (1R)-2-[4-(5-cyclopropyl-2-{6-cyclopropyl-2-[(4-methoxyphenyl)methyl]-2H-pyrazolo[3,4-b]pyridin-5-yl}-1-methyl-1H-imidazol-4-yl)-2H-indazol-2-yl]-1-phenylethan-1-ol] | 14.1 nM | 33 K |
| Cn1c(-c2cc3cn(CCN4CCOCC4)nc3nc2C2CC2)nc(-c2cccc3nn(C[C@H](O)c4ccccc4)cc23)c1C1CC1 [Example 10, (1R)-2-[4-(5-cyclopropyl-2-{6-cyclopropyl-2-[2-(morpholin-4-yl)ethyl]-2H-pyrazolo[3,4-b]pyridin-5-yl}-1-methyl-1H-imidazol-4-yl)-2H-indazol-2-yl]-1-phenylethan-1-ol] | 9.3 nM | 30 K |
| Cc1nc2nn(CCCCO)cc2cc1-n1nc(-c2cccc3nn(C[C@H](O)c4ccccc4)cc23)c(C(C)C)c1C [Example 12, 4-[5-(3-{2-[(2R)-2-hydroxy-2-phenylethyl]-2H-indazol-4-yl}-5-methyl-4-(propan-2-yl)-1H-pyrazol-1-yl)-6-methyl-2H-pyrazolo[3,4-b]pyridin-2-yl]butan-1-ol] | 4.4 nM | 29 K |

More lines, now with the values ahead:

| IC50 (human STING WT (R232)) | DSF [1] | SMILES |
| --- | --- | --- |
| 17.5 nM | 30 K | Cc1c(C(C)C)c(-c2cccc3nn(C[C@H](O)c4ccccc4)cc23)nn1-c1cc2cn(C)nc2nc1C1CCCO1 (stereo partly drawn) [Example 13, (1R)-2-(4-{5-methyl-1-[2-methyl-6-(oxolan-2-yl)-2H-pyrazolo[3,4-b]pyridin-5-yl]-4-(propan-2-yl)-1H-pyrazol-3-yl}-2H-indazol-2-yl)-1-phenylethan-1-ol] |
| 9.1 nM | 28 K | Cc1nc2nn(C3CCOC3)cc2cc1-n1nc(-c2cccc3nn(C[C@H](O)c4ccccc4)cc23)c(C(C)C)c1C (stereo partly drawn) [Example 14, (1R)-2-(4-{5-methyl-1-[6-methyl-2-(oxolan-3-yl)-2H-pyrazolo[3,4-b]pyridin-5-yl]-4-(propan-2-yl)-1H-pyrazol-3-yl}-2H-indazol-2-yl)-1-phenylethan-1-ol] |
| 19.1 nM | 30 K | Cc1c(C(C)C)c(-c2cccc3nn(C[C@H](O)c4ccc(OCCN5CCOCC5)cc4)cc23)nn1-c1cc2cn(C)nc2nc1C1CC1 [Example 15, (1R)-2-[4-(1-{6-cyclopropyl-2-methyl-2H-pyrazolo[3,4-b]pyridin-5-yl}-5-methyl-4-(propan-2-yl)-1H-pyrazol-3-yl)-2H-indazol-2-yl]-1-{4-[2-(morpholin-4-yl)ethoxy]phenyl}ethan-1-ol] |
| 6.6 nM | 28 K | COCCn1cc2cc(-n3nc(-c4cccc5nn(C[C@H](O)c6ccccc6)cc45)c(C(C)C)c3C)c(C)nc2n1 [Example 16, (1R)-2-(4-{1-[2-(2-methoxyethyl)-6-methyl-2H-pyrazolo[3,4-b]pyridin-5-yl]-5-methyl-4-(propan-2-yl)-1H-pyrazol-3-yl}-2H-indazol-2-yl)-1-phenylethan-1-ol] |
| 1.4 nM | 27 K | COCc1nc2nn(C)cc2cc1-n1nc(-c2cccc3nn(C[C@H](O)c4ccccc4)cc23)c(C(C)C)c1C [Example 17, (1R)-2-(4-{1-[6-(methoxymethyl)-2-methyl-2H-pyrazolo[3,4-b]pyridin-5-yl]-5-methyl-4-(propan-2-yl)-1H-pyrazol-3-yl}-2H-indazol-2-yl)-1-phenylethan-1-ol] |
